The record followed here is patent US20160367497A1, “METHODS AND COMPOSITIONS FOR TREATING NEUROPATHIES” (Washington University, priority 2007, published 2016).

In assay [1] the test system is AMPK. As to the kind of experiment: AMPK phosphorylation in Neuro2a cells (phospho-specific western blot). The note with it: for effect on resveratrol-mediated activation of AMPK (AMPK and ACC phosphorylation): resveratrol 10 μM, 2 h, sirtinol 10 μM, splitomycin 10 μM, nicotinamide 10 mM, STO 609 2.5 μM. It is filed as cell-based. How it is done:
FIG. 10A-D illustrates resveratrol activation of AMP kinase in Neuro2a cells. Neuro2a cells were switched to serum-starvation medium (medium containing 0.2% FCS) and treated with DMSO (vehicle control), resveratrol (10 μM) or 5-aminoimidazole-4-carboxamide-1-β-D-ribofuranoside (AICAR) (1 mM). […] Very low levels of phosphorylated AMPK and ACC were detected in DMSO treated control cells at all time points tested. (C) Densitometric analysis of changes in phosphorylated AMPK and (D) phosphorylated ACC under different conditions is shown.
Cell culture and Reagents. Neuro2 cells obtained from ATCC were grown in MEM with 1.5 g/L sodium bicarbonate, 0.1 mM nonessential amino acids, 0.1 mM sodium pyruvate, 2 mM L-glutamine with 10% FCS. For differentiation, cells were switched to serum-starvation medium (containing 0.2% FCS). For neurite outgrowth measurements, experiments were done in quadruplicate and 100 neurites per well were randomly measured using the Metamorph software. Dorsal root ganglia sensory and cortical neurons were established from E13.5 mouse embryos, maintained in neurobasal medium supplemented with B27 (and NGF for DRG neurons) and infected with lentiviruses as described (Araki et al., 2004, Science 305:1010-1013; Hawley et al., 2005, Cell Metab 2:21-23). Resveratrol was a gift from Sirtris Pharmaceuticals (Cambridge Mass.) and AICAR was obtained from Toronto Research (North York, Canada). Splitomycin and Compound C were purchased from Biomol (Plymouth Meeting, Pa.) and Calbiochem (San Diego, Calif.). Sirtinol and nicotinamide were purchased from Sigma (Saint Louis, Mo.)
Plasmids and viruses. The dominant negative (dnAMPK) and constitutively active (caAMPK) plasmids were gifts from Russell Jones (University of Pennsylvania, Philadelphia Pa.), and pCXN-Cre was a gift of Inder Verma (Salk Institute, San Diego, Calif.). All constructs were subcloned into the lentiviral shuttle vector FCIV and verified by nucleotide sequence analysis. Viruses were prepared as previously described (Araki et al., 2004, Science 305:1010-1013). Protein and mRNA analysis. Immunoprecipitations and western blot analysis were performed by standard methods using antibodies directed against total AMPK, phosphorylated AMPK, total ACC or phosphorylated ACC that were obtained from Cell Signaling Technology (Beverley, Mass.). The phospho-AMPK antibody detects endogenous AMPK α1 and α2 when phosphorylated at threonine 172. The LKB1 antibody was purchased from Upstate (Lake Placid, N.Y.). Quantitative RT-PCR analysis was performed using Sybr-Green methodology on a model 7700 instrument (Applied Biosystems) as previously described (Araki et al., 2004, Science 305:1010-1013). Primer sequences were those used in previous studies (Motoshima, et al., 2006, J Physiol 574:63-71).
(§1) To explore the role of polyphenols, in particular, of resveratrol, we tested whether resveratrol altered the activity of AMPK in neuronal cells. Neuro2a neuroblastoma cells were treated with resveratrol (10 μM) and AMPK activation was examined using phospho-AMPK specific antibodies. […] To confirm that AMPK activation by resveratrol results in typical AMPK-mediated downstream responses, we monitored phosphorylation of ACC (acetyl Co-A carboxylase), a primary target of activated AMPK. […] To examine a potential mechanism of resveratrol-mediated AMPK activation, we measured cellular ATP levels as a decreased ATP:AMP ratio increases the phosphorylation of AMPK. ATP levels were monitored using a luciferase-based assay in neuro2A cells treated with resveratrol or Oligomycin, an inhibitor of mitochondrial oxidative phosphorylation and therefore ATP production. While the ATP concentration dropped from 5.874 μM in DMSO-treated cells (control) to 0.976 μM in Oligomycin treated cells within 2 hr, the ATP concentration in resveratrol-treated Neuro2a cells was not altered from control either at 2 hr (6.33 μM) or 24 hr (6.42 μM).
On the technique in general: Immunoblotting shows a protein as a band on a membrane.

The subject of assay [2] is neuro2A cells. Description: cellular ATP levels, luciferase-based assay in neuro2A cells. It is filed as cell-based. How it is done: as §1
Assay [3] deals with neuro2A cells. As to the kind of experiment: survival of Neuro2A cells in nutrient-deprived conditions. The assay is classed as cell-based. The note with it: regardless of the FCS concentration (10% or 0.2%).
Description: When Neuro2A cells are grown in culture in presence of 10% FCS, cells proliferate and ultimately die if cells are not passaged. If grown in the presence of 0.2% FCS, neuro2A cells differentiate and project neurites but ultimately die within one week.
The test system of assay [4] is ACC. Description: ACC phosphorylation in brain after intraperitoneal injection. It is filed as in vivo, mice. Particulars: single intraperitoneal injection 20 mg/kg; within 2 h. The procedure: (§2) FIG. 15A-E illustrates that resveratrol treatment causes AMPK phosphorylation in the brain. Two-month-old male mice were injected intraperitoneally with resveratrol (20 mg/kg body weight) or DMSO (vehicle) (n=3, for each treatment). Two hr after treatment, the animals were sacrificed and brain lysates were prepared. […] Total AMPK and ACC levels are shown as loading controls in B and D. (E) Densitometry was used to quantify the increased level of AMPK and ACC phosphorylation in the brain of resveratrol treated animals (* p<0.005).
(§3) To extend our in vitro results, we tested whether treating mice with resveratrol activates AMPK in the brain. We injected intraperitoneally 2-month-old male mice with either resveratrol (20 mg/kg body weight) or DMSO (vehicle) (n=3 for each group).

The subject of assay [5] is AMPK. Description: AMPK phosphorylation in brain after intraperitoneal injection. It is filed as in vivo, mice. Particulars: single intraperitoneal injection 20 mg/kg; within 2 h. How it is done: as §2, §3

Molecules are shown by their SMILES.

For the compound `NC(=O)c1cccnc1` [Nam, nicotinamide], the “effect on resveratrol-mediated activation of AMPK (AMPK and ACC phosphorylation)” value in assay [1] is recorded as “None of the SIRT1 inhibitors attenuated”.
On the same count and under the same terms, the entry for `O=C1CCc2c(ccc3ccccc23)O1` [splitomycin] is “None of the SIRT1 inhibitors attenuated”; for `CC(NC(=O)c1ccccc1/N=C/c1c(O)ccc2ccccc12)c1ccccc1` (stereo not shown) [Sirtinol] it is “None of the SIRT1 inhibitors attenuated”.
With `Oc1ccc(C=Cc2cc(O)cc(O)c2)cc1` [resveratrol], the AMPK phosphorylation entry in assay [1] (resveratrol 10 μM or AICAR 1 mM, 2 h up to 72 h) was “robust increase in AMPK Thr172 phosphorylation”. For the same compound, the ATP concentration in assay [2] (2 hr) came out at 6.33 µM; in assay [2] (24 hr) it was 6.42 µM. The cell survival result in assay [3] is “resistant to death for a prolonged period of time”. Besides, the “increased ACC phosphorylation in the brain” value in assay [4] is on record as 2.1 fold. Besides, the “increased AMPK phosphorylation in the brain” value in assay [5] amounted to 2.5 fold.
As to `O=C(O)c1ccc2c3c1cccc3c(=O)n1c3ccccc3nc21` [STO 609], the “effect on resveratrol-mediated activation of AMPK (AMPK and ACC phosphorylation)” value in assay [1] was “had no effect”.
